# In US20220395496A1 (Hoffmann-La Roche Inc., priority 2019, published 2022):
# Target: T1, human TLR8 (Homo sapiens, UniProt Q9NR97)
# T1 sequence (Q9NR97 27-1041): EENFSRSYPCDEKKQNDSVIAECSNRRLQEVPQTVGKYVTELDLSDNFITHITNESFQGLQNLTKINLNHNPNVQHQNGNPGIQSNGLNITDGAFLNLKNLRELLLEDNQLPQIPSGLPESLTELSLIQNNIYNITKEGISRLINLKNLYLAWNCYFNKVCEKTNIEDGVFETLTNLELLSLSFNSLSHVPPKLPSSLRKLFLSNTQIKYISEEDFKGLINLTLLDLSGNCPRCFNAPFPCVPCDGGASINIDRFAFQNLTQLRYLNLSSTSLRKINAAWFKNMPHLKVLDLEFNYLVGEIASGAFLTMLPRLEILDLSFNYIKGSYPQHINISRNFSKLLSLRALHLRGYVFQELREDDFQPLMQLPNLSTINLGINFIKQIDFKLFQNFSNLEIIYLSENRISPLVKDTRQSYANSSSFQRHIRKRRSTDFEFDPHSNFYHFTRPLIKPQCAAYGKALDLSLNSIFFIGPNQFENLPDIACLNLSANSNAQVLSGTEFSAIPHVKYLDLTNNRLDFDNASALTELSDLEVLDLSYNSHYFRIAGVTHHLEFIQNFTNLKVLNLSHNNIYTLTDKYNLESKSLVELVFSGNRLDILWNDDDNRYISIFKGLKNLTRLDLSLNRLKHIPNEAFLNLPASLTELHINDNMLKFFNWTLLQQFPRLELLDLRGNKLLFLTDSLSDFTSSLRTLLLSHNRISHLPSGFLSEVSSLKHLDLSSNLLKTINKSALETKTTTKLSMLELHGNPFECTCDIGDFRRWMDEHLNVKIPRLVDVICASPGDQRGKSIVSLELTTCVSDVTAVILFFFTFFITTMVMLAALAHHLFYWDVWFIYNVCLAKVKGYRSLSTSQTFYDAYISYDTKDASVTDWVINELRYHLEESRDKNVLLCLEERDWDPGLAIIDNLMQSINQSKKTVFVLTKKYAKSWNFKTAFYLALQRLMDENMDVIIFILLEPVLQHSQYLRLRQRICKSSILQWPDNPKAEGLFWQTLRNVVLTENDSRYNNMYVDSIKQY
# Experiment: HEK293-Blue-hTLR-8 cells assay (SEAP reporter, R848 stimulation)
# Type: cell-based
# Settings: HEK293-Blue-hTLR8 cells, R848, 20 hrs; lowest tested concentration 0.0032
# Method: The following tests were carried out in order to determine the activity of the compounds of this invention in HEK293-Blue-hTLR-7/8/9 cells assay.
# HEK293-Blue-hTLR-8 Cells Assay:
# A stable HEK293-Blue-hTLR-8 cell line was purchased from InvivoGen (Cat. #: hkb-htlr8, San Diego, Calif., USA). These cells were originally designed for studying the stimulation of human TLR8 by monitoring the activation of NF-κB. A SEAP (secreted embryonic alkaline phosphatase) reporter gene was placed under the control of the IFN-β minimal promoter fused to five NF-κB and AP-1-binding sites. The SEAP was induced by activating NF-κB and AP-1 via stimulating HEK-Blue hTLR8 cells with TLR8 ligands. Therefore the reporter expression was declined by TLR8 antagonist under the stimulation of a ligand, such as R848, for incubation of 20 hrs. The cell culture supernatant SEAP reporter activity was determined using QUANTI-Blue™kit (Cat. #: rep-qb1, Invivogen, San Diego, Calif., USA) at a wavelength of 640 nm, a detection medium that turns purple or blue in the presence of alkaline phosphatase.
# HEK293-Blue-hTLR8 cells were incubated at a density of […] cells/mL in a volume of 170 μL in a 96-well plate in Dulbecco's Modified Eagle's medium (DMEM) containing 4.5 g/L glucose, 50 U/mL penicillin, […], […], 2 mM L-glutamine, 10% (v/v) heat-inactivated fetal bovine serum with addition of 20 μL test compound in a serial dilution in the presence of final DMSO at 1% and 10 μL of 60 uM R848 in above DMEM, perform incubation under 37° C. in a CO2 incubator for 20 hrs. Then 20 μL of the supernatant from each well was incubated with 180 μL Quanti-blue substrate solution at 37° C. for 2 hrs and the absorbance was read at 620˜655 nm using a spectrophotometer. The signalling pathway that TLR8 activation leads to downstream NF-κB activation has been widely accepted, and therefore similar reporter assay was modified for evaluating TLR8 antagonist.
row,IC50 [nM],SMILES
1,< 3.2,"C[C@H]1C[C@@H](N2CCc3cc(N4CCNCC4)ccc3C2)CN(c2ccc(C#N)c3ncccc23)C1 (relative stereo) [Example 24, 5-[cis-3-methyl-5-(6-piperazin-1-yl-3,4-dihydro-1H-isoquinolin-2-yl)-1-piperidyl]quinoline-8-carbonitrile]"
2,4,"C[C@H]1C[C@@H](NCc2ccc(N3CCNCC3)cc2)CN(c2ccc(C#N)c3nccnc23)C1 [Example 3, 8-[(3S,5R)-3-methyl-5-[(4-piperazin-1-ylphenyl)methylamino]-1-piperidyl]quinoxaline-5-carbonitrile]"
3,< 3.2,"C[C@H]1C[C@@H](NCc2ccc(N3CCNCC3)cc2F)CN(c2ccc(C#N)c3ncccc23)C1 [Example 4, 5-[(3R,58)-3-[(2-fluoro-4-piperazin-1-yl-phenyl)methylamino]-5-methyl-1-piperidyl]quinoline-8-carbonitrile]"
4,6,"C[C@H]1C[C@@H](NCc2ccc(N3CCNCC3)cn2)CN(c2ccc(C#N)c3ncccc23)C1 [Example 5, 5-[(3S,5R)-3-methyl-5-[(5-piperazin-1-yl-2-pyridyl)methylamino]-1-piperidyl]quinoline-8-carbonitrile]"
5,4,"C[C@H]1C[C@@H](NCc2cccc(N3CCN(C)CC3)c2)CN(c2ccc(C#N)c3ncccc23)C1 [Example 6, 5-[(3S,5R)-3-methyl-5-[[3-(4-methylpiperazin-1-yl)phenyl]methylamino]-1-piperidyl]quinoline-8-carbonitrile]"
6,< 3.2,"C[C@H]1C[C@@H](NCc2ccc(N3CCN(C)CC3)cc2)CN(c2ccc(C#N)c3ncccc23)C1 [Example 7, 5-[(3S,5R)-3-methyl-5-[[4-(4-methylpiperazin-1-yl)phenyl]methylamino]-1-piperidyl]quinoline-8-carbonitrile]"
7,9,"C[C@H]1C[C@@H](NCc2cccc(N3CCNCC3)c2)CN(c2ccc(C#N)c3ncccc23)C1 [Example 8, 5-[(3S,5R)-3-methyl-5-[(3-piperazin-1-ylphenyl)methylamino]-1-piperidyl]quinoline-8-carbonitrile]"
8,5,"C[C@H]1C[C@@H](N(C)Cc2ccc(N3CCNCC3)cc2)CN(c2ccc(C#N)c3ncccc23)C1 [Example 9, 5-[(3S,5R)-3-methyl-5-[methyl-[(4-piperazin-1-ylphenyl)methyl]amino]-1-piperidyl]quinoline-8-carbonitrile]"
9,< 3.2,"C[C@H]1C[C@@H](NCc2ccc3c(c2)CCNC3)CN(c2ccc(C#N)c3ncccc23)C1 [Example 11, 5-[(3S,5R)-3-methyl-5-(1,2,3,4-tetrahydroisoquinolin-6-ylmethylamino)-1-piperidyl]quinoline-8-carbonitrile]"
10,6,"C[C@H]1C[C@@H](NCc2ccc(N3CCC(N)C3)cc2)CN(c2ccc(C#N)c3ncccc23)C1 (stereo partly drawn) [Example 13, 5-[(3R,5S)-3-[[4-(3-aminopyrrolidin-1-yl)phenyl]methylamino]-5-methyl-1-piperidyl]quinoline-8-carbonitrile]"
11,10,"Cc1cc(-c2ccc(CN[C@@H]3C[C@H](C)CN(c4ccc(C#N)c5ncccc45)C3)cc2)cc(C)n1 [Example 15, 5-[(3R,5S)-3-[[4-(2,6-dimethyl-4-pyridyl)phenyl]methylamino]-5-methyl-1-piperidyl]quinoline-8-carbonitrile]"
12,< 3.2,"C[C@H]1C[C@@H](NCc2cnc(N3CCN(C)CC3)nc2)CN(c2ccc(C#N)c3ncccc23)C1 [Example 16, 5-[(3S,5R)-3-methyl-5-[[2-(4-methylpiperazin-1-yl)pyrimidin-5-yl]methylamino]-1-piperidyl]quinoline-8-carbonitrile]"
13,< 3.2,"C[C@H]1C[C@@H](NCc2ccc(N3CCN(C)CC3)cn2)CN(c2ccc(C#N)c3ncsc23)C1 [Example 18, 7-[(3S,5R)-3-methyl-5-[[5-(4-methylpiperazin-1-yl)-2-pyridyl]methylamino]-1-piperidyl]-1,3-benzothiazole-4-carbonitrile]"
